Reference: patent US20250311727A1, “SUBSTITUTED 2-AMINOAZINES AND SALTS THEREOF, AND USE THEREOF AS HERBICIDAL ACTIVE SUBSTANCES” (BAYER AKTIENGESELLSCHAFT, priority 2022, published 2025)

Legend:
Type in all cases: in vivo
[1] = tested on: Amaranthus retroflexus; experiment: Post-emergence herbicidal efficacy at 320 g/ha, AMARE; settings: rated visually after about 3 weeks vs untreated controls, 100% = plants have died
In short: (§1)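 Effects are visual ratings taken about three weeks after foliar application, scaled from 0% (as untreated control) to 100% (plants died). Application was at the one-leaf stage in greenhouse-grown pots.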

[2] = tested on: Echinochloa crus-galli; experiment: Post-emergence herbicidal efficacy at 320 g/ha, ECHCG; settings: rated visually after about 3 weeks vs untreated controls, 100% = plants have died
Excerpt: (§2) Unwanted plants/weeds: • ABUTH: Abutilon theophrasti • ALOMY: Alopecurus myosuroides • AMARE: Amaranthus retroflexus • DIGSA: Digitaria sanguinalis • ECHCG: Echinochloa crus-galli • KCHSC: Kochia scoparia • LOLRI: Lolium rigidum • MATIN: Matricaria inodora • POAAN: Poa annua • POLCO: Polygonum convolvulus • SETVI: Setaria viridis • STEME: Stellaria media • VERPE: Veronica persica • VIOTR: Viola tricolor A. Post-Emergence Herbicidal Efficacy at 320 g/ha
(§3) Seeds of mono- and dicotyledonous weed plants were placed in plastic pots in sandy loam soil (doubly sown with in each case one species of mono- or dicotyledonous weed plants per pot), covered with soil and cultivated in a greenhouse under controlled growth conditions. 2 to 3 weeks after sowing, the test plants were treated at the one-leaf stage. The compounds of the invention, formulated in the form of wettable powders (WP) or as emulsion concentrates (EC), were applied to the green parts of the plants as aqueous suspension or emulsion with addition of 0.5% additive at a water application rate equivalent to 600 litres per hectare. After the test plants had been kept in the greenhouse under optimum growth conditions for about 3 weeks, the activity of the preparations was rated visually in comparison to untreated controls.
(§4) For example, 100% activity=the plants have died, 0% activity=like control plants.
(§5) Tables A1 to A10 below show the effects of selected compounds of the general formula (I) according to Table 1 on various harmful plants and at an application rate corresponding to 320 g/ha, which were obtained by the trial procedure specified above.

[3] = tested on: Kochia scoparia; experiment: Post-emergence herbicidal efficacy at 320 g/ha, KCHSC; settings: rated visually after about 3 weeks vs untreated controls, 100% = plants have died
In short: as §1

[4] = tested on: Amaranthus retroflexus; experiment: Pre-emergence herbicide efficacy at 320 g/ha, AMARE; settings: scored visually after about 3 weeks vs untreated controls, 100% = plants have died
In short: (§6)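 Visual percent activity versus untreated controls, read about 3 weeks after treatment, where 100% means dead plants and 0% means control-like growth. Compound (WP or EC, 0.5% additive, 600 L/ha water) was sprayed onto the covering soil over freshly sown weed seeds in sandy loam, then kept in a greenhouse.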

[5] = tested on: Digitaria sanguinalis; experiment: Pre-emergence herbicide efficacy at 320 g/ha, DIGSA; settings: scored visually after about 3 weeks vs untreated controls, 100% = plants have died
In short: as §6

[6] = tested on: Kochia scoparia; experiment: Pre-emergence herbicide efficacy at 320 g/ha, KCHSC; settings: scored visually after about 3 weeks vs untreated controls, 100% = plants have died
In short: as §6

[7] = tested on: Lolium rigidum; experiment: Pre-emergence herbicide efficacy at 320 g/ha, LOLRI; settings: scored visually after about 3 weeks vs untreated controls, 100% = plants have died
Excerpt: as §2
(§7) Seeds of mono- and dicotyledonous weed plants were placed in plastic pots in sandy loam soil (doubly sown with one species each of mono- or dicotyledonous weed plants per pot) and covered with soil. The compounds of the invention, formulated in the form of wettable powders (WP) or as emulsion concentrates (EC), were then applied to the surface of the covering soil as aqueous suspension or emulsion with addition of 0.5% additive at a water application rate of 600 litres per hectare (converted). After the treatment, the pots were placed in a greenhouse and kept under good growth conditions for the test plants. After about 3 weeks, the efficacy of the preparations was scored visually in comparison with untreated controls as percentages.
as §4
(§8) Tables C1 to C12 below show the effects of selected compounds of the general formula (I) according to Table 1 on various harmful plants and at an application rate corresponding to 320 g/ha, which were obtained by the trial procedure specified above.

[8] = tested on: Poa annua; experiment: Pre-emergence herbicide efficacy at 320 g/ha, POAAN; settings: scored visually after about 3 weeks vs untreated controls, 100% = plants have died
Excerpt: as §2, §7, §4, §8

[9] = tested on: Setaria viridis; experiment: Pre-emergence herbicide efficacy at 320 g/ha, SETVI; settings: scored visually after about 3 weeks vs untreated controls, 100% = plants have died
In short: as §6

[10] = tested on: Stellaria media; experiment: Pre-emergence herbicide efficacy at 320 g/ha, STEME; settings: scored visually after about 3 weeks vs untreated controls, 100% = plants have died
In short: as §6

[11] = tested on: Veronica persica; experiment: Pre-emergence herbicide efficacy at 320 g/ha, VERPE; settings: scored visually after about 3 weeks vs untreated controls, 100% = plants have died
In short: as §6

[12] = tested on: Abutilon theophrasti; experiment: Post-emergence herbicidal efficacy at 320 g/ha, ABUTH; settings: rated visually after about 3 weeks vs untreated controls, 100% = plants have died
In short: as §1

[13] = tested on: Alopecurus myosuroides; experiment: Post-emergence herbicidal efficacy at 320 g/ha, ALOMY; settings: rated visually after about 3 weeks vs untreated controls, 100% = plants have died
Excerpt: as §2, §3, §4, §5

[14] = tested on: Digitaria sanguinalis; experiment: Post-emergence herbicidal efficacy at 320 g/ha, DIGSA; settings: rated visually after about 3 weeks vs untreated controls, 100% = plants have died
Excerpt: as §2, §3, §4, §5

[15] = tested on: Poa annua; experiment: Post-emergence herbicidal efficacy at 320 g/ha, POAAN; settings: rated visually after about 3 weeks vs untreated controls, 100% = plants have died
Excerpt: as §2, §3, §4, §5

[16] = tested on: Stellaria media; experiment: Post-emergence herbicidal efficacy at 320 g/ha, STEME; settings: rated visually after about 3 weeks vs untreated controls, 100% = plants have died
In short: as §1

[17] = tested on: Veronica persica; experiment: Post-emergence herbicidal efficacy at 320 g/ha, VERPE; settings: rated visually after about 3 weeks vs untreated controls, 100% = plants have died
In short: as §1

[18] = tested on: Abutilon theophrasti; experiment: Post-emergence herbicidal efficacy at 80 g/ha, ABUTH; settings: rated visually after about 3 weeks vs untreated controls, 100% = plants have died
Excerpt: as §2
(§9) Seeds of monocotyledonous and dicotyledonous weeds and crop plants were placed in sandy loam in plastic or organic planting pots, covered with soil and cultivated in a greenhouse under controlled growth conditions. 2 to 3 weeks after sowing, the test plants were treated at the one-leaf stage. The compounds of the invention, formulated in the form of wettable powders (WP) or as emulsion concentrates (EC), were then sprayed onto the green parts of the plants as aqueous suspension or emulsion with addition of 0.5% additive at a water application rate of 600 l/ha (converted). After the test plants had been kept in the greenhouse under optimum growth conditions for about 3 weeks, the activity of the preparations was rated visually in comparison to untreated controls. For example, 100% activity=the plants have died, 0% activity=like control plants.
(§10) Tables B1 to B11 below show the effects of selected compounds of the general formula (I) according to Table 1 on various harmful plants and an application rate corresponding to 80 g/ha, which were obtained by the experimental procedure mentioned above.

[19] = tested on: Amaranthus retroflexus; experiment: Post-emergence herbicidal efficacy at 80 g/ha, AMARE; settings: rated visually after about 3 weeks vs untreated controls, 100% = plants have died
Excerpt: as §2, §9, §10

[20] = tested on: Kochia scoparia; experiment: Post-emergence herbicidal efficacy at 80 g/ha, KCHSC; settings: rated visually after about 3 weeks vs untreated controls, 100% = plants have died
Excerpt: as §2, §9, §10

[21] = tested on: Setaria viridis; experiment: Post-emergence herbicidal efficacy at 80 g/ha, SETVI; settings: rated visually after about 3 weeks vs untreated controls, 100% = plants have died
Excerpt: as §2, §9, §10

[22] = tested on: Veronica persica; experiment: Post-emergence herbicidal efficacy at 80 g/ha, VERPE; settings: rated visually after about 3 weeks vs untreated controls, 100% = plants have died
Excerpt: as §2, §9, §10

[23] = tested on: Viola tricolor; experiment: Post-emergence herbicidal efficacy at 80 g/ha, VIOTR; settings: rated visually after about 3 weeks vs untreated controls, 100% = plants have died
Excerpt: as §2, §9, §10

[24] = tested on: Abutilon theophrasti; experiment: Pre-emergence herbicide efficacy at 320 g/ha, ABUTH; settings: scored visually after about 3 weeks vs untreated controls, 100% = plants have died
Excerpt: as §2, §7, §4, §8

[25] = tested on: Alopecurus myosuroides; experiment: Pre-emergence herbicide efficacy at 320 g/ha, ALOMY; settings: scored visually after about 3 weeks vs untreated controls, 100% = plants have died
Excerpt: as §2, §7, §4, §8

[26] = tested on: Echinochloa crus-galli; experiment: Pre-emergence herbicide efficacy at 320 g/ha, ECHCG; settings: scored visually after about 3 weeks vs untreated controls, 100% = plants have died
Excerpt: as §2, §7, §4, §8

[27] = tested on: Amaranthus retroflexus; experiment: Pre-emergence herbicide efficacy at 80 g/ha, AMARE; settings: scored visually after about 3 weeks vs untreated controls, 100% = plants have died
Excerpt: as §2
(§11) Seeds of monocotyledonous and dicotyledonous weed plants and crop plants were placed in plastic or organic planting pots and covered with soil. The compounds of the invention, formulated in the form of wettable powders (WP) or as emulsion concentrates (EC), were then applied to the surface of the covering soil as aqueous suspension or emulsion with addition of 0.5% additive at a water application rate equivalent to 600 l/ha. After the treatment, the pots were placed in a greenhouse and kept under good growth conditions for the test plants. After about 3 weeks, the efficacy of the preparations was scored visually in comparison with untreated controls as percentages. For example, 100% activity=the plants have died, 0% activity=like control plants.
(§12) Tables D1 to D12 below show the effects of selected compounds of the general formula (I) according to Table 1 on various harmful plants and an application rate corresponding to 80 g/ha, which were obtained by the experimental procedure mentioned above.

[28] = tested on: Digitaria sanguinalis; experiment: Pre-emergence herbicide efficacy at 80 g/ha, DIGSA; settings: scored visually after about 3 weeks vs untreated controls, 100% = plants have died
Excerpt: as §2, §11, §12

[29] = tested on: Setaria viridis; experiment: Pre-emergence herbicide efficacy at 80 g/ha, SETVI
Excerpt: as §2, §11, §12

[30] = tested on: Veronica persica; experiment: Pre-emergence herbicide efficacy at 80 g/ha, VERPE
Excerpt: as §2, §11, §12

[31] = tested on: Viola tricolor; experiment: Pre-emergence herbicide efficacy at 80 g/ha, VIOTR
Excerpt: as §2, §11, §12

Structure (SMILES): Fc1cnc(Nc2cccc(F)c2-n2cc(C(F)(F)F)cn2)nc1 [Example 1-48]
- Post-emergence efficacy at 320 g/ha against AMARE in % [1]: 100%
- Post-emergence efficacy at 320 g/ha against ECHCG in % [2]: 90%
- Post-emergence efficacy at 320 g/ha against KCHSC in % [3]: 90%
- Pre-emergence efficacy at 320 g/ha against AMARE in % [4]: 100%
- Pre-emergence efficacy at 320 g/ha against DIGSA in % [5]: 100%
- Pre-emergence efficacy at 320 g/ha against KCHSC in % [6]: 100%
- Pre-emergence efficacy at 320 g/ha against LOLRI in % [7]: 100%
- Pre-emergence efficacy at 320 g/ha against POAAN in % [8]: 100%
- Pre-emergence efficacy at 320 g/ha against SETVI in % [9]: 100%
- Pre-emergence efficacy at 320 g/ha against STEME in % [10]: 100%
- Pre-emergence efficacy at 320 g/ha against VERPE in % [11]: 100%

Structure (SMILES): Fc1cccc(Nc2ncc(Cl)cn2)c1-c1cc(C(F)F)no1 [Example 1-33]
- Post-emergence efficacy at 320 g/ha against ABUTH in % [12]: 100%
- Post-emergence efficacy at 320 g/ha against ALOMY in % [13]: 100%
- Post-emergence efficacy at 320 g/ha against AMARE in % [1]: 100%
- Post-emergence efficacy at 320 g/ha against DIGSA in % [14]: 100%
- Post-emergence efficacy at 320 g/ha against ECHCG in % [2]: 100%
- Post-emergence efficacy at 320 g/ha against KCHSC in % [3]: 100%
- Post-emergence efficacy at 320 g/ha against POAAN in % [15]: 100%
- Post-emergence efficacy at 320 g/ha against STEME in % [16]: 100%
- Post-emergence efficacy at 320 g/ha against VERPE in % [17]: 100%
- Post-emergence efficacy at 80 g/ha against ABUTH in % [18]: 80%
- Post-emergence efficacy at 80 g/ha against AMARE in % [19]: 100%
- Post-emergence efficacy at 80 g/ha against KCHSC in % [20]: 100%
- Post-emergence efficacy at 80 g/ha against SETVI in % [21]: 100%
- Post-emergence efficacy at 80 g/ha against VERPE in % [22]: 100%
- Post-emergence efficacy at 80 g/ha against VIOTR in % [23]: 100%
- Pre-emergence efficacy at 320 g/ha against ABUTH in % [24]: 100%
- Pre-emergence efficacy at 320 g/ha against ALOMY in % [25]: 100%
- Pre-emergence efficacy at 320 g/ha against AMARE in % [4]: 100%
- Pre-emergence efficacy at 320 g/ha against DIGSA in % [5]: 100%
- Pre-emergence efficacy at 320 g/ha against ECHCG in % [26]: 100%
- Pre-emergence efficacy at 320 g/ha against KCHSC in % [6]: 100%
- Pre-emergence efficacy at 320 g/ha against POAAN in % [8]: 100%
- Pre-emergence efficacy at 320 g/ha against SETVI in % [9]: 100%
- Pre-emergence efficacy at 320 g/ha against STEME in % [10]: 100%
- Pre-emergence efficacy at 320 g/ha against VERPE in % [11]: 100%
- Pre-emergence efficacy at 80 g/ha against AMARE in % [27]: 100%
- Pre-emergence efficacy at 80 g/ha against DIGSA in % [28]: 90%
- Pre-emergence efficacy against SETVI [29]: 100%
- Pre-emergence efficacy against VERPE [30]: 90%
- Pre-emergence efficacy against VIOTR [31]: 90%
